# Test results as given in PubChem BioAssay AID248 (DTP/NCI, 2004).
# Several values for one entry are separate records, joined by “and”; a condition that tells them apart may be missing. Equal values may be shown once. Toxic doses and inconclusive results are not listed.
# Tested on: L1210 leukemia ip in BDF1 mice, survival T/C
# Experiment: NCI In Vivo Anticancer Drug Screen. Data for tumor model L1210 Leukemia (intraperitoneal) in B6D2F1 (BDF1) mice
# Conditions: endpoint: mean survival time, higher = longer survival
# Outline: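 Transplanted-tumor mice were given test agent; controls received vehicle only. Survival readings from the two groups were divided (treated over control).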
# [1] = dose: 100.0 mg/kg/injection, schedule: Q01DX001 (ip), vehicle: saline
# [2] = dose: 200.0 mg/kg/injection, schedule: Q01DX001 (ip), vehicle: saline
# [3] = dose: 400.0 mg/kg/injection, schedule: Q01DX001 (ip), vehicle: saline
# [4] = dose: 100.0 mg/kg/injection, schedule: Q01DX009 (ip), vehicle: saline with Tween-80
# [5] = dose: 200.0 mg/kg/injection, schedule: Q01DX009 (ip), vehicle: saline with Tween-80
# [6] = dose: 400.0 mg/kg/injection, schedule: Q01DX009 (ip), vehicle: saline with Tween-80
# [7] = dose: 100.0 mg/kg/injection, schedule: Q04DX003 (ip), vehicle: saline with Tween-80
# [8] = dose: 200.0 mg/kg/injection, schedule: Q04DX003 (ip), vehicle: saline with Tween-80
# [9] = dose: 100.0 mg/kg/injection, schedule: Q04DX002 (ip), vehicle: Klucel (hydroxypropylcellulose) (HPC)
# [10] = dose: 100.0 mg/kg/injection, schedule: Q01DX009 (ip), vehicle: saline
# [11] = dose: 100.0 mg/kg/injection, schedule: Q04DX003 (ip), vehicle: saline
# [12] = dose: 200.0 mg/kg/injection, schedule: Q01DX009 (ip), vehicle: saline
# [13] = dose: 200.0 mg/kg/injection, schedule: Q04DX003 (ip), vehicle: saline
# [14] = dose: 400.0 mg/kg/injection, schedule: Q01DX009 (ip), vehicle: saline
# [15] = dose: 400.0 mg/kg/injection, schedule: Q04DX003 (ip), vehicle: saline
smiles,measurement,setting,value
OC(CNc1ccc(Cl)cc1)CN1CCCC1 (stereo not given),T/C,"dose: 75.0 mg/kg/injection, schedule: Q04DX003 (ip), vehicle: saline",101 % of control
O=C(NCCCCCCCCNC(=O)Nc1ccc(C2=NCCN2)cc1)Nc1ccc(C2=NCCN2)cc1,T/C,"dose: 25.0 mg/kg/injection, schedule: Q01DX Z (ip), vehicle: carboxymethylcellulose (CMC)",117 % of control
same,T/C,"dose: 62.0 mg/kg/injection, schedule: Q01DX Z (ip), vehicle: carboxymethylcellulose (CMC)",151 % of control
same,T/C,"dose: 62.0 mg/kg/injection, schedule: Q01DX Z (oral), vehicle: carboxymethylcellulose (CMC)",103 % of control
same,T/C,"dose: 100.0 mg/kg/injection, schedule: Q01DX Z (ip), vehicle: carboxymethylcellulose (CMC)",187 % of control
same,T/C,"dose: 125.0 mg/kg/injection, schedule: Q01DX Z (ip), vehicle: carboxymethylcellulose (CMC)",157 % of control
same,T/C,"dose: 125.0 mg/kg/injection, schedule: Q01DX Z (oral), vehicle: carboxymethylcellulose (CMC)",111 % of control
same,T/C,"dose: 150.0 mg/kg/injection, schedule: Q01DX Z (ip), vehicle: carboxymethylcellulose (CMC)",213 % of control
same,T/C,"dose: 250.0 mg/kg/injection, schedule: Q01DX Z (ip), vehicle: carboxymethylcellulose (CMC)",114 % of control
same,T/C,"dose: 250.0 mg/kg/injection, schedule: Q01DX Z (oral), vehicle: carboxymethylcellulose (CMC)",109 % of control
same,T/C,"dose: 500.0 mg/kg/injection, schedule: Q01DX Z (oral), vehicle: carboxymethylcellulose (CMC)",120 % of control
COc1cc(N)c2ncccc2c1[N+](=O)[O-],T/C,"dose: 50.0 mg/kg/injection, schedule: Q01DX001 (ip), vehicle: saline",112 % of control
same,T/C,[1],106 % of control
same,T/C,[2],106 % of control
same,T/C,[3],104 % of control
COc1ccc(OC)c(NC(=O)Nc2ccc(Cl)cc2[N+](=O)[O-])c1,T/C,[4],91 % of control
same,T/C,[5],97 % of control
same,T/C,[6],89 % of control
c1ccc(CCNc2ncnc3[nH]ncc23)cc1,T/C,"dose: 12.0 mg/kg/injection, schedule: Q01DX015 (ip), vehicle: carboxymethylcellulose (CMC)",97 % of control
same,T/C,"dose: 25.0 mg/kg/injection, schedule: Q01DX015 (ip), vehicle: carboxymethylcellulose (CMC)",97 % of control
same,T/C,"dose: 50.0 mg/kg/injection, schedule: Q01DX015 (ip), vehicle: carboxymethylcellulose (CMC)",95 % of control
CCSc1nc(C)cc(Cl)n1,T/C,[7],100 % of control
same,T/C,[8],93 % of control
CCOC(=O)/C(C#N)=C/c1cccn1Cc1cc(OC)c(OC)cc1[N+](=O)[O-],T/C,"dose: 25.0 mg/kg/injection, schedule: Q04DX002 (ip), vehicle: Klucel (hydroxypropylcellulose) (HPC)",110 % of control
same,T/C,"dose: 50.0 mg/kg/injection, schedule: Q04DX002 (ip), vehicle: Klucel (hydroxypropylcellulose) (HPC)",89 % of control
same,T/C,[9],96 % of control
NC(CSSCC(N)=NCCCCCSC12CC3CC(CC(C3)C1)C2)=NCCCCCSC12CC3CC(CC(C3)C1)C2,T/C,"dose: 2.5 mg/kg/injection, schedule: Q04DX002 (ip), vehicle: Klucel (hydroxypropylcellulose) (HPC)",100 % of control
same,T/C,"dose: 5.0 mg/kg/injection, schedule: Q04DX002 (ip), vehicle: Klucel (hydroxypropylcellulose) (HPC)",100 % of control
same,T/C,"dose: 10.0 mg/kg/injection, schedule: Q04DX002 (ip), vehicle: Klucel (hydroxypropylcellulose) (HPC)",100 % of control and 90 % of control
CCOC(=O)CP(=O)(OCC)OCC,T/C,[10],103 % of control
same,T/C,[11],109 % of control
same,T/C,[12],106 % of control
same,T/C,[13],102 % of control
same,T/C,[14],99 % of control
same,T/C,[15],113 % of control
CCCCC(CC)C(=O)C(CCN(C)C)(c1ccccc1)c1ccccn1 (stereo not given),T/C,"dose: 44.0 mg/kg/injection, schedule: Q01DX Z (ip), vehicle: methylcellulose (MC)",101 % of control
same,T/C,"dose: 66.0 mg/kg/injection, schedule: Q01DX Z (ip), vehicle: methylcellulose (MC)",97 % of control
same,T/C,"dose: 100.0 mg/kg/injection, schedule: Q01DX Z (ip), vehicle: methylcellulose (MC)",96 % of control
COC1OC(CNCCO)C2OC(C)(C)OC12 (stereo not given),T/C,[10],103 % of control
same,T/C,[11],101 % of control
same,T/C,[12],96 % of control
same,T/C,[13],98 % of control
same,T/C,[14],101 % of control
same,T/C,[15],95 % of control
Nc1ncc(C=O)c(N)n1,T/C,"dose: 6.25 mg/kg/injection, schedule: Q01DX009 (ip), vehicle: Klucel (hydroxypropylcellulose) (HPC)",113 % of control
same,T/C,"dose: 12.5 mg/kg/injection, schedule: Q01DX009 (ip), vehicle: Klucel (hydroxypropylcellulose) (HPC)",100 % of control
CCCCOC(=O)CCC(C)=O,T/C,[4],92 % of control
same,T/C,[7],109 % of control
same,T/C,[5],100 % of control
same,T/C,[8],113 % of control
same,T/C,[6],96 % of control
same,T/C,"dose: 400.0 mg/kg/injection, schedule: Q04DX003 (ip), vehicle: saline with Tween-80",112 % of control
OC(CF)C(O)C(O)C(O)CF (stereo not given),T/C,"dose: 75.0 mg/kg/injection, schedule: Q01DX009 (ip), vehicle: saline",95 % of control
same,T/C,[1],101 % of control
same,T/C,[2],93 % of control
same,T/C,"dose: 300.0 mg/kg/injection, schedule: Q01DX009 (ip), vehicle: saline",101 % of control
same,T/C,[3],93 % of control
[O]=[Sb]([OH])([c]1ccc(Cl)cc1)[c]1ccc(Cl)cc1,T/C,"dose: 75.0 mg/kg/injection, schedule: Q01DX001 (ip), vehicle: saline",116 % of control
NNc1cc(Cl)ccc1Cl,T/C,[9],96 % of control
same,T/C,"dose: 200.0 mg/kg/injection, schedule: Q04DX002 (ip), vehicle: Klucel (hydroxypropylcellulose) (HPC)",96 % of control
same,T/C,"dose: 400.0 mg/kg/injection, schedule: Q04DX002 (ip), vehicle: Klucel (hydroxypropylcellulose) (HPC)",100 % of control
CCCCOC(=O)c1ccc(NC(=O)Nc2ccc([N+](=O)[O-])cc2OC)cc1,T/C,"dose: 100.0 mg/kg/injection, schedule: Q01DX009 (ip), vehicle: other",98 % of control
same,T/C,"dose: 200.0 mg/kg/injection, schedule: Q01DX009 (ip), vehicle: other",104 % of control
same,T/C,"dose: 400.0 mg/kg/injection, schedule: Q01DX009 (ip), vehicle: other",87 % of control
C=C(C)C1CCC(C)=CC1c1c(OC(=O)c2cc([N+](=O)[O-])cc([N+](=O)[O-])c2)cc(CCCCC)cc1OC(=O)c1cc([N+](=O)[O-])cc([N+](=O)[O-])c1 (stereo not given),T/C,"dose: 100.0 mg/kg/injection, schedule: Q01DX001 (ip), vehicle: Klucel (hydroxypropylcellulose) (HPC)",92 % of control
same,T/C,"dose: 200.0 mg/kg/injection, schedule: Q01DX001 (ip), vehicle: Klucel (hydroxypropylcellulose) (HPC)",91 % of control
same,T/C,"dose: 400.0 mg/kg/injection, schedule: Q01DX001 (ip), vehicle: Klucel (hydroxypropylcellulose) (HPC)",92 % of control
O=C(O)c1ccc([N+](=O)[O-])cc1OCc1ccccc1,T/C,"dose: 100.0 mg/kg/injection, schedule: Q01DX001 (ip), vehicle: other",103 % of control
same,T/C,"dose: 200.0 mg/kg/injection, schedule: Q01DX001 (ip), vehicle: other",95 % of control
same,T/C,"dose: 400.0 mg/kg/injection, schedule: Q01DX001 (ip), vehicle: other",97 % of control
Cc1cc(N(CCOS(C)(=O)=O)CCOS(C)(=O)=O)ccc1C=Nc1ccc(C(=O)O)c(O)c1,T/C,"dose: 4.0 mg/kg/injection, schedule: Q01DX009 (ip), vehicle: saline with Tween-80",111 % of control
same,T/C,"dose: 6.0 mg/kg/injection, schedule: Q01DX009 (ip), vehicle: saline with Tween-80",119 % of control
CC(=O)NCCC(=O)O,T/C,[11],95 % of control
same,T/C,[13],101 % of control
same,T/C,[15],95 % of control
